We go through 33 compounds from US11498921B1, “Pyrimidine or pyridine compounds, preparation method therefor and pharmaceutical uses thereof” (INVENTISBIO CO., LTD., priority 2014, dated 2022).

pIC50: −log10 of the molar value. Counter-ions that a name gives are not always drawn.

What all share (assay type): cell-based
Test [1] concerns LoVo cells (wild-type EGFR human colon adenocarcinoma). Description: Cell growth inhibition (Cell Titer-Glo), LoVo. The settings on record: 72 hours drug treatment, 3 nM to 10 μM. On the procedure: (§1) Experiment of Cell Growth Inhibition
(§2) The LoVo cell line is a wild-type EGFR human colon adenocarcinoma cell, and is grown in F-12K medium (GIBCO) containing 10% FBS. NCI-H2073 cell line is a wild-type EGFR human non-small cell lung cancer cell and grown in ACL-4 medium containing 10% FBS. The growth rate of NCI-H1975, LoVo and NCI-H2073 cells was detected by Cell Titer-Glo luminescence activity assay (Promega #G7572).
(§3) Briefly, trypsin was used for digesting cells in the logarithmic growth phase. 96-well plates were seeded with 50,000 Lovo or NCI-H2073 cells, 2500-3000 NCI-H1975 cells per well and provided with blank control wells containing only nutrient solution without inoculated cell, and the plates were incubated in a humidified incubator with 5% CO2 at 37° C. […] The concentration of test drug in NCI-H1975 cells was from 0.03 nM to 100 nM, and that in LoVo and NCI-H2073 cells was from 3 nM to 10 μM. The cell culture medium containing the different compounds was then added to a 96-well cell plate in which one cell control well comprising cell culture medium only containing DMSO was provided. After a drug treatment for 72 hours, the cell plates were removed from the incubator and allowed to stand at room temperature for 30 minutes. Next, Cell Titer-Glo reagent was added to the wells and the 96-well cell plate was shaken at room temperature for 10 minutes to induce cell lysis. The 96-well cell plate was placed on the bench for 2 minutes to stabilize the luminescence signal. Finally, the 96-well cell plate was placed in an EnVision Multi-labeled Microplate Reader (PerkinElmer), and the signal was read with an integral time of 0.5 seconds.
(§4) Formula: Percentage of cell growth inhibition %=(maximum signal−compound signal)/(maximum signal−minimum signal)*100%
(§5) The maximal signal was obtained from the cell control well which were treated with the DMSO solution having no any compound;
(§6) The compound signal was obtained from the drug-treated cell wells to which the compound was added;
(§7) The minimum signal was obtained from a blank control well to which no cells and only nutrient solution was added.

Test [2] has as its system NCI-H2073 cells (wild-type EGFR human non-small cell lung cancer). The experiment in a line: Cell growth inhibition (Cell Titer-Glo), NCI-H2073. The conditions noted are these: 72 hours drug treatment, 3 nM to 10 μM. On the procedure:
as §1
as §2, with “The compounds that were preferentially targeted for EGFR targeting certain mutations and relatively weak in wild-type EGFR were identified by determining the growth of cells. The NCI-H1975 cell line is a human non-small cell lung cancer cell containing T790M and L858R EGFR mutations, and the cell is grown in RPMI-1640 medium (GIBCO) containing 10% fetal bovine serum (FBS). The LoVo” for “The LoVo”
Briefly, trypsin was used for digesting cells in the logarithmic growth phase. 96-well plates were seeded with 50,000 Lovo or NCI-H2073 cells, 2500-3000 NCI-H1975 cells per well and provided with blank control wells containing only nutrient solution without inoculated cell, and the plates were incubated in a humidified incubator with 5% CO2 at 37° C. After 24 hours, the DMSO solution of the different compounds was diluted with a cell culture medium at 3.16 times per time to eight different concentrations from high to low levels. The concentration of test drug in NCI-H1975 cells was from 0.03 nM to 100 nM, and that in LoVo and NCI-H2073 cells was from 3 nM to 10 μM. The cell culture medium containing the different compounds was then added to a 96-well cell plate in which one cell control well comprising cell culture medium only containing DMSO was provided. After a drug treatment for 72 hours, the cell plates were removed from the incubator and allowed to stand at room temperature for 30 minutes. Next, Cell Titer-Glo reagent was added to the wells and the 96-well cell plate was shaken at room temperature for 10 minutes to induce cell lysis. The 96-well cell plate was placed on the bench for 2 minutes to stabilize the luminescence signal. Finally, the 96-well cell plate was placed in an EnVision Multi-labeled Microplate Reader (PerkinElmer), and the signal was read with an integral time of 0.5 seconds.
as §4, §5, §6, §7

The subject of test [3] is NCI-H1975 cells (T790M and L858R EGFR mutations). The experiment in a line: Cell growth inhibition (Cell Titer-Glo), NCI-H1975. The settings on record: Homo sapiens, 72 hours drug treatment, 0.03 nM to 100 nM. On the procedure: as §1, §2, §3, §4, §5, §6, §7

With `C=CC(=O)Nc1cc(Nc2nccc(-c3nn(C)c4ccccc34)n2)c(OC)cc1N(C)CCN(C)C` [1. (HCl)n], the pIC50 in test [1] was 5.65; in test [2], 6.64; in test [3], 8.27.
On to `C=CC(=O)Nc1cc(Nc2nccc(-n3nnc4ccccc43)n2)c(OC)cc1N(C)CCN(C)C` [2. (MsOH)3], for which the pIC50 was 5.64 in test [1], 6.32 in test [2] and 8.21 in test [3].
Take `C=CC(=O)Nc1cc(Nc2nccc(-n3ccc4ccccc43)n2)c(OC)cc1N(C)CCN(C)C` [3. (MsOH)2]: the pIC50 in test [1] was 5.51; in test [2], 6.53; in test [3] it was 8.21.
As for `C=CC(=O)Nc1cc(Nc2nccc(-n3cc(C)c4ccccc43)n2)c(OC)cc1N(C)CCN(C)C` [4. (MsOH)3], the pIC50 in test [1] was 5.59; in test [2], 6.30; in test [3], 8.07.
Taken in the same sequence, the figures for `C=CC(=O)Nc1cc(Nc2nccc(N3CCc4ccccc43)n2)c(OC)cc1N(C)CCN(C)C` [5. (MsOH)3] were 5.37, 6.47 and 8.27.
For `C=CC(=O)Nc1cc(Nc2nccc(-c3cn(C)c4ccccc34)n2)c(OC)cc1N(C)CCN(C)CC` [7. (MsOH)3], the figures for the pIC50 in test [1], in test [2] and in test [3] were 5.66, 6.12 and 8.00, respectively.
On the same counts, the results for `C=CC(=O)Nc1cc(Nc2nccc(-c3cn(C)c4ccccc34)n2)c(OC)cc1N(C)CCN(CC)CC` [8. MsOH] are 5.71, 6.06 and 6.95.
`C=CC(=O)Nc1cc(Nc2nccc(-c3cn(C)c4ccccc34)n2)c(OC)cc1N(CC)CCN(C)C` [9. (MsOH)2]: the pIC50 in test [1] was 5.69; in test [2] it was 5.95; in test [3], 7.89.
Regarding `C=CC(=O)Nc1cc(Nc2nccc(-c3cn(C)c4ccccc34)n2)c(OC)cc1OCCN(C)C` [29. (MsOH)2], the pIC50 in test [1] is 5.60; in test [2] it was 5.60; in test [3], 7.89.
As to `C=CC(=O)Nc1cc(Nc2nccc(N3CCOc4ccccc43)n2)c(OC)cc1N(C)CCN(C)C` [36. (MsOH)3], the pIC50 in test [1] is 5.36; in test [2], 6.39; in test [3], 7.82.
In the case of `[2H]C([2H])([2H])n1c(=O)n(-c2ccnc(Nc3cc(NC(=O)C=C)c(N(C)CCN(C)C)cc3OC)n2)c2ccccc21` [65. (MsOH)2], the negative-log IC50 (pIC50) in test [2] was 6.82; in test [3], 8.72.
For the compound `C=CC(=O)Nc1cc(Nc2nccc(-n3c(=O)n(CC)c4ccccc43)n2)c(OC)cc1N(C)CCN(C)C` [66. (MsOH)3], the negative logarithm of the IC50 (pIC50) in test [2] is 6.70; in test [3], 8.44.
Take `[2H]C([2H])([2H])N(CCN(C)C)c1cc(OC)c(Nc2nccc(-n3c(=O)n(CC)c4ccccc43)n2)cc1NC(=O)C=C` [68. (MsOH)2]: the pIC50 was 7.37 in test [2] and 9.40 in test [3].
In the case of `[2H]C([2H])([2H])N(CCN(C)c1cc(OC)c(Nc2nccc(-n3c(=O)n(CC)c4ccccc43)n2)cc1NC(=O)C=C)C([2H])([2H])[2H]` [69. (MsOH)3], the pIC50 was 7.20 in test [2] and 9.10 in test [3].
In the case of `[2H]C([2H])([2H])N(CCN(C)c1cc(OC)c(Nc2nccc(-c3cn(S(C)(=O)=O)c4ccccc34)n2)cc1NC(=O)C=C)C([2H])([2H])[2H]` [70. (MsOH)2], the pIC50 in test [2] was 7.34; in test [3], 9.30.
On the same counts, the results for `[2H]C([2H])([2H])N(CCN(C)C)c1cc(OC)c(Nc2nccc(-c3cn(S(C)(=O)=O)c4ccccc34)n2)cc1NC(=O)C=C` [71. (MsOH)2] are 7.19 and 9.40.
On the same counts, the results for `[2H]C([2H])([2H])N(CCN(C)c1cc(OC)c(Nc2nccc(-c3cn(CC)c4ccccc34)n2)cc1NC(=O)C=C)C([2H])([2H])[2H]` [72. (MsOH)3] are 6.55 and 8.57.
On the same counts, the results for `[2H]C([2H])([2H])N(CCN(C)C)c1cc(OC)c(Nc2nccc(-c3cn(CC)c4ccccc34)n2)cc1NC(=O)C=C` [73. (MsOH)2] are 6.75 and 8.77.
As for `[2H]C([2H])([2H])N(CCN(C)C)c1cc(OC)c(Nc2nccc(-n3nnc4ccccc43)n2)cc1NC(=O)C=C` [74. (MsOH)3], the pIC50 in test [2] was 6.33; in test [3], 7.84.
Turning to `[2H]C([2H])([2H])N(CCN(C)C)c1cc(OC)c(Nc2nccc(-n3c(=O)n(C([2H])([2H])[2H])c4ccccc43)n2)cc1NC(=O)C=C` [76. (MsOH)2], the pIC50 in test [2] is 7.25; in test [3], 9.00.
On the same counts, the results for `C=CC(=O)Nc1cc(Nc2nccc(-c3cn(S(=O)(=O)CC)c4ccccc34)n2)c(OC)cc1N(C)CCN(C)C` [101. (MsOH)2] are 6.71 and 8.26.
On the same counts, the results for `C=CC(=O)Nc1cc(Nc2nccc(-c3cn(S(=O)(=O)C(C)C)c4ccccc34)n2)c(OC)cc1N(C)CCN(C)C` [102. (MsOH)2] are 6.77 and 8.19.
As to `C=CC(=O)Nc1cc(Nc2nccc(-c3cn(S(=O)(=O)C4CC4)c4ccccc34)n2)c(OC)cc1N(C)CCN(C)C` [103. (MsOH)2], the negative logarithm of the IC50 (pIC50) in test [2] is 6.52; in test [3], 7.88.
Consider `C=CC(=O)Nc1cc(Nc2nccc(-c3cn(CC(F)F)c4ccccc34)n2)c(OC)cc1N(C)CCN(C)C` [105. (MsOH)2], for which the results for the pIC50 in test [2] and in test [3] were 6.27 and 7.80, respectively.
Taken in the same sequence, the figures for `C=CC(=O)Nc1cc(Nc2nccc(-n3c(=O)n(C(C)C)c4ccccc43)n2)c(OC)cc1N(C)CCN(C)C` [106. (MsOH)2] were 6.81 and 8.33.
On the same counts, the results for `C=CC(=O)Nc1cc(Nc2nccc(-n3c(=O)n(C4CC4)c4ccccc43)n2)c(OC)cc1N(C)CCN(C)C` [107. (MsOH)2] are 6.73 and 8.13.
On the same counts, the results for `C=CC(=O)Nc1cc(Nc2nccc(-n3c(=O)n(CC(F)(F)F)c4ccccc43)n2)c(OC)cc1N(C)CCN(C)C` [108. (MsOH)2] are 6.60 and 8.23.
For `C=CC(=O)Nc1cc(Nc2nccc(-n3c(=O)n(CC(F)F)c4ccccc43)n2)c(OC)cc1N(C)CCN(C)C` [109. (MsOH)2], the values for the pIC50 in test [2] and in test [3] were 6.57 and 8.35, respectively.
On to `C=CC(=O)Nc1cc(Nc2nccc(N3c4ccccc4N(C)S3(=O)=O)n2)c(OC)cc1N(C)CCN(C)C` [110. (MsOH)2], for which the pIC50 was 6.99 in test [2] and 8.54 in test [3].
On the same counts, the results for `C=CC(=O)Nc1cc(Nc2nccc(N3c4ccccc4N(CC)S3(=O)=O)n2)c(OC)cc1N(C)CCN(C)C` [111. (MsOH)2] are 7.31 and 8.57.
On the same counts, the results for `C=CC(=O)Nc1cc(Nc2nccc(-n3cc(S(C)(=O)=O)c4ccccc43)n2)c(OC)cc1N(C)CCN(C)C` [112. (MsOH)2] are 5.27 and 7.00.
With `C=CC(=O)Nc1cc(Nc2nccc(-c3nn(C(C)C)c4ccccc34)n2)c(OC)cc1N(C)CCN(C)C` [113. (MsOH)2], the pIC50 in test [2] is 6.23; in test [3], 7.58.
Take `C=CC(=O)Nc1cc(Nc2nccc(-c3cncc4ccccc34)n2)c(OC)cc1N(C)CCN(C)C` [Example 67]: the pIC50 is 5.39 in test [2] and 7.09 in test [3].
